The record followed here is patent US10793591B2, “Substituted nucleosides, nucleotides and analogs thereof” (priority 2012, dated 2020).

The data set addresses human mitochondrial RNA polymerase (Homo sapiens (Human), UniProt O00411). Description: DdRp assay: incorporation of nucleotides by human mitochondrial RNA polymerase (HMRP). Particulars: 100 μM NTP, single turnover, product band on gel.

Sequence of human mitochondrial RNA polymerase (O00411 42-1230): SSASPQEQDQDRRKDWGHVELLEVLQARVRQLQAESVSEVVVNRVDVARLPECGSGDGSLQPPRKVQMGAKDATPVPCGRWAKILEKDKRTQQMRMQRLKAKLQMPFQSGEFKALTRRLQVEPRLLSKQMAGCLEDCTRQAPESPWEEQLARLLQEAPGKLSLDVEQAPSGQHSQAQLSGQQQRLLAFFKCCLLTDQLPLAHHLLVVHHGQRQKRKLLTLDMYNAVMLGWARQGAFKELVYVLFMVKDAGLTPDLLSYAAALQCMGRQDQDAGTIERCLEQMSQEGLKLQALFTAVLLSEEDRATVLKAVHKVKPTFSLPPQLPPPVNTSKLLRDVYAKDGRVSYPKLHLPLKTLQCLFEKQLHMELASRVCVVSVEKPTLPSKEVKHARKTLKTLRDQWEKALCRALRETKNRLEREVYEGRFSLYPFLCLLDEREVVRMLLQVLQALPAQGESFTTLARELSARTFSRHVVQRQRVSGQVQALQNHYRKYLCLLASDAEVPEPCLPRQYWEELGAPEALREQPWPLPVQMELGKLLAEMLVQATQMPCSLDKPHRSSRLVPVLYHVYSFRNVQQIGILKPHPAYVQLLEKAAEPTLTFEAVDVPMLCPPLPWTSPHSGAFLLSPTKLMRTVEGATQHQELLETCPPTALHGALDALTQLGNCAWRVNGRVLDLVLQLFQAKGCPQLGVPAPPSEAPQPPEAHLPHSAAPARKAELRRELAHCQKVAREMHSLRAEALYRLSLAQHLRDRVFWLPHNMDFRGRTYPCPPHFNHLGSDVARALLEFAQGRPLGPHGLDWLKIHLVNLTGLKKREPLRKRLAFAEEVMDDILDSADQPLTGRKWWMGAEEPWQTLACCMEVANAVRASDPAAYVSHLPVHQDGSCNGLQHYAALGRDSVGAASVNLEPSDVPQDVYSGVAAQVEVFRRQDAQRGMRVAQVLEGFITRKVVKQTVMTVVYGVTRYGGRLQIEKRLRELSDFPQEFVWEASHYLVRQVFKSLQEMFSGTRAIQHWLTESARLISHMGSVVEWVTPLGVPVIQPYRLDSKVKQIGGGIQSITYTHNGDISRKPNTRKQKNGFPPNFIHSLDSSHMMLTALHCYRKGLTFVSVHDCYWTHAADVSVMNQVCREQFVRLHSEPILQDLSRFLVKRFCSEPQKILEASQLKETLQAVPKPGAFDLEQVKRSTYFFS

In the case of `C[C@@]1(F)[C@H](O)[C@@H](COP(=O)(O)OP(=O)(O)OP(=O)(O)O)O[C@H]1n1ccc(=O)[nH]c1=O` [2′-Me-2′-F-UTP], the “incorporation by HMRP (template for UTP analogs, FIG. 10)” value is on record as “not efficient substrates for incorporation by HMRP”.
With `Nc1ncnc2c1ncn2[C@@H]1O[C@H](COP(=O)(O)OP(=O)(O)OP(=O)(O)O)[C@@H](O)[C@H]1O` [ATP], the “incorporation by HMRP (template for GTP analogs, FIG. 11)” value was “poor substrate for incorporation”.
